Measurements reported in US20250041574A1 (TARIS Biomedical LLC, priority 2022, published 2025).
Where two headings read alike, the source gives them in different places.

Key:
[1] = dynamic vapor sorption
[2] = not given; remark: listed apart in the source
[3] = In vitro protein binding in minipig urine; format: in vitro ADME
Method: (§1) Albuminuria/proteinuria had minimal effect on % free form in urine.
(§2) At the end of 6-hours post-dialysis incubation, drug was analyzed, and the recovery was calculated against the spiked concentrations.

[4] = system: RT-112 orthotopic bladder tumor; experiment: Continuous bladder perfusion in athymic rats with orthotopic RT-112 bladder tumors
[5] = system: UM-UC-1 orthotopic bladder tumors; experiment: Continuous bladder perfusion in athymic rats with orthotopic UM-UC-1 bladder tumors
Method: Perfusion studies: The bladders of the study animals were cannulated on Day 1 and the animals were allowed to recover for 3 days. On Day 5, UM-UC-1 cells (2×10^6 cells) were injected into the lateral wall of each bladder. […] Based on the in vitro results, target urine concentrations of 0.5, 1.0, and 5.0 μg/mL were used in the perfusion experiments. Body weight, daily urine production, and daily water consumption were recorded. At necropsy, a plasma sample, bladder photographs, and bladder weight measurements were recorded.
The percent reduction in relative tumor weight between the control group and the drug perfusion groups was determined as an initial measure of efficacy. Bladder tissue and tumor samples were also submitted for analysis of FGFR signaling activity by determining the phosphorylated fibroblast growth factor receptor substrate (FRS)2a levels and the pERK to ERK ratio.

Stability in human urine = format: in vitro ADME; settings: freshly collected human urine, 37° C., 6 hours
Method: as §2

[6] = urine
Source text: On Day −7 a catheter was surgically placed in the bladder of each animal. The distal end of the catheter was anchored to a subcutaneous site and attached to a vascular access port (VAP). The port was secured, and the animals were allowed to recover. Each animal was subsequently fitted with a portable infusion pump that was attached to the bladder catheter via the VAP. […] All excreted urine was collected in 24-hour intervals through Day 6 or 8. Blood samples were collected daily on study Days 1 to 8. Bladder tissue samples were collected from each animal at necropsy.

Stability in rat urine = format: in vitro ADME; settings: freshly collected rat urine, 37° C., 6 hours
Method: as §2

[7] = Stability in minipig urine; format: in vitro ADME; settings: freshly collected minipig urine, 37° C., 6 hours
Method: as §2

[8] = rat, in vivo
Source text: Rat bladders (5 groups of rats, n=3/group) were surgically catheterized under anesthesia and the catheter was externalized, tunneled subcutaneously, and connected to a vascular access harness (VAH) in the neck. Rats were transferred to individual metabolic cages with free access to food and water during the 1-week post-surgery recovery period. […] Plasma and bladder samples were collected at all time points.

[9] = In vitro protein binding in rat urine; format: in vitro ADME
Method: as §1, §2

[10] = In vitro protein binding in human urine; format: in vitro ADME
Method: as §1, §2

COc1cc(OC)cc(N(CCNC(C)C)c2ccc3ncc(-c4cnn(C)c4)nc3c2)c1.C[C@H](O)C(=O)O [Erdafitinib L-lactate salt]
solubility (as function of pH in water and simulated urine at 37° C.): very high solubility over a broad pH range | DVS [1]: Non-hygroscopic | In Vitro Permeation ([2]; EVA (CoTran 9712)): ◯ | In Vitro Permeation ([2]; TPU (EG-80A)): Δ | In Vitro Permeation ([2]; TPU (HP-60D-35)): ◯ | In Vitro Permeation ([2]; TPU (HP-93A-100)): ◯

COc1cc(OC)cc(N(CCNC(C)C)c2ccc3ncc(-c4cnn(C)c4)nc3c2)c1 [erdafitinib, N-(3,5-dimethoxyphenyl)-N′-(1-methylethyl)-N-[3-(1-methyl-1H-pyrazol-4-yl)quinoxalin-6-yl]ethane-1,2-diamine]
Percent erdafitinib free in urine [3]: 97% | bladder weight vs vehicle control ([4]; 1.0 μg/mL perfusate concentration, p<0.05): significant bladder weight reduction | bladder weight decrease vs vehicle control ([4]; 0.25 and 0.5 μg/mL dose groups): not statistically significant | percentage change in body weight vs vehicle control ([4]; 0.5, 1.0 and 5.0 μg/mL treatment groups (so in the source), except Group 4 on Day 11 (p<0.05)): Statistically non-significant difference | body weight loss, maximum mean values ([4]; erdafitinib-treated group, Day 11): up to −3% | solubility (normal urine pH range of 5.5 to 7): significant pH-dependent solubility | bladder weight vs vehicle control ([5]; 0.5 (p<0.01), 1.0 and 5 μg/mL (p<0.001) nominal urine concentrations, 5 days perfusion): significant dose-related decrease | percentage change in body weight vs vehicle control ([5]; 0.5, 1.0 and 5.0 μg/mL treatment groups): Statistically non-significant difference | cage side observations ([5]; 5 days continuous perfusion, 0.5, 1.0, 5.0 μg/mL, any treatment group): no visible signs of abnormal behavior or clinical symptoms | stability in urine (Stability in human urine): sufficiently stable | DVS [1]: Non-hygroscopic | Daily erdafitinib recoveries, of the average daily amount administered [6]: 15.7% | stability in urine (Stability in rat urine): sufficiently stable | stability in urine [7]: sufficiently stable | AUC0-120h ([8]; female, Sprague-Dawley, 0.72 mg): 127,000 ng · h/mL | C96h [8]: BQL | C120h [8]: BQL | In Vitro Permeation ([2]; EVA (CoTran 9712)): Δ | In Vitro Permeation ([2]; TPU (EG-80A)): Δ | In Vitro Permeation ([2]; TPU (HP-60D-35)): ◯ | In Vitro Permeation ([2]; TPU (HP-93A-100)): ◯ | Percent erdafitinib free in urine [9]: 84% | Percent erdafitinib free in urine [10]: 95%
